In patent publication US6372727B1, “Metalloporphyrin treatment of neurologic disease” (UAB Research Foundation, priority 1999, dated 2002):

Tests used:
[1] = Peroxynitrite-mediated nitration of GYA peptide; assay type: biochemical; conditions: percent of added peroxynitrite
isolated hearts = test: Isolated hearts, ischemia and reperfusion
[2] = MP-catalyzed nitration of HPA: effect of pH, reductants and serum; assay type: biochemical
[3] = 100 μM DCDHF, pH 7.4, 37° C.
Description: A 14.5 mM stock solution of 2,7-dichlorodihydrofluorescein was prepared as described (24). Reaction solutions were prepared in rapidly stirred glass cuvettes and contained 100 μM of DCDHF and 2 μM of the indicated MP in 1.4 ml of 0.1 M potassium phosphate, pH 7.4 at 37° C. Peroxynitrite was added sequentially to rapidly stirred cuvettes; three seperate additions of 2 μM peroxynitrite were made followed by three seperate additions of 4 μM each (see Inset). DCDHF oxidation to dichlorofluorescein (DCF) was monitored at 500 nm (59,500 M^−1cm^−1) (24). Oxidative efficiency was defined as the moles of DCF formed per mole of peroxynitrite added and was determined for each peroxynitrite addition. The values shown represent the average of all six additions.
Dichlorodihydrofluorescein (DCDHF) undergoes a two-electron oxidation to yield the highly absorbing (and fluorescent) product dichlorofluorescein (DCF). DCDHF has been shown previously to be oxidized at an efficiency as high as 38% of added peroxynitrite (24) and was used here as an indicator to detect any changes in the total oxidative yield of peroxynitrite caused by metalloporphyrins.

In the case of O=C(O)c1ccc(-c2c3nc(c(-c4ccc(C(=O)O)cc4)c4ccc([n-]4)c(-c4ccc(C(=O)O)cc4)c4nc(c(-c5ccc(C(=O)O)cc5)c5ccc2[n-]5)C=C4)C=C3)cc1.[Fe+2] [FeTCPP, Iron (III) meso 5,10,15,20-tetrakis-(4-carboxy-phenyl) porphyrin], the “average efficiency of nitration catalysis” value [1] is reported as 22.7% and the “protection of isolated hearts” value (isolated hearts) is reported as “protects isolated hearts from the injurious effects of ischemia and reperfusion”.
In the case of C[n+]1ccc(-c2c3nc(c(-c4cc[n+](C)cc4)c4ccc([n-]4)c(-c4cc[n+](C)cc4)c4nc(c(-c5cc[n+](C)cc5)c5ccc2[n-]5)C=C4)C=C3)cc1.[Cl-].[Cl-].[Cl-].[Cl-].[Cl-].[Mn+3] [MnTMPyP, Manganese (III) meso-tetra-(N-methyl-4-pyridyl)-porphine chloride], the “enhancement of nitration yield at pH 9.1” value ([2]; 8 mM HPA, 10 μM MP, 0.1 M sodium borate pH 9.1, versus non-catalyzed) is reported as 12.3 fold, the “effect of ascorbate and GSH on nitration enhancement” value ([2]; concentrations which eliminated non-catalyzed nitration) is reported as “much less inhibitory effect” and the “ascorbate concentration giving complete inhibition of nitration enhancement” value ([2]; dose-dependent, not shown) is reported as 1.5 mM. For the same compound, the “effect of serum on nitration enhancement” value ([2]; fresh human serum 1:10 added prior to peroxynitrite) was “much less effect”, the “increase of total oxidant yield from peroxynitrite” value [3] was 2.2 fold and the “oxidant yield, of added peroxynitrite” value [3] was 83%.
